Assay results taken from US20230266303A1, “SYSTEM” (GTINVENT LIMITED, priority 2020, published 2023).

Test system: dSH-SY5Y cells
Experiment: Internalisation of dGAE-488 into cells by confocal microscopy
Assay type: cell-based, human
Conditions: soluble form, 5 μM dGAE-488, live confocal imaging t=0 h to 14 h
Description: Undifferentiated SH-SY5Y human neuroblastoma cells were grown in Dulbecco's Modified Eagle Medium/Nutrient Mixture F-12 (DMEM/F-12) supplemented with 10% Foetal Calf Serum (FCS), 1% Penicillin/Streptomycin (P/S) and 1% L-glutamine. For differentiation, SH-SY5Y cells were plated at a density of 50,000 cells per well in 24-well plates or 300,000 cells per well in 6-well plates. For immunofluorescence, cells were plated onto Menzel-Gläser coverslips (Thermo Scientific). For live-cell imaging, cells were plated on 35-mm dishes on a 1.5-mm coverslip (Mattek). On the first day of differentiation, media was replaced with low-serum culture media (DMEM/F-12 containing 1% FCS, 1% P/S and 1% L-glutamine) containing 10 μM all-trans retinoic acid (RA) (Sigma-Aldrich) and cells were incubated for 48 h. On day 3, this process was repeated with fresh RA and cells were incubated for a further 48 h. On day 5, the cells were washed once in serum-free culture media to remove traces of serum. […] Differentiated cells (dSH-SY5Y) were ready to use for experiments on day 7. […]
FIJI (https://fiji.sc) imaging processing package (J. Schindelin et al., Nat. Methods, vol. 9, no. 7, pp. 676-682, (2012)) was used for all image analysis. For quantification of fluorescence intensities, images were Z-projected to maximal intensity. […] Area-integrated intensity and mean grey value were measured as well as three selections from around the cell with no fluorescence (background). The corrected total cell fluorescence (CTCF) was then calculated using the equation: […]
For quantification of internalised dGAE-488, a focal plane from the middle of the cell that contained maximal DAPI fluorescence was selected and subjected to analysis.
The uptake of soluble and aggregated dGAE into dSH-SY5Y cells was investigated in order to examine whether aggregation state affects the efficiency of internalisation. The labelled dGAE-488 form was used to permit uptake to be visualised and measured having corrected for total cell fluorescence. […]

**Q.** “dGAE: recombinant truncated tau, 95 residues fragment of Tau (2N4R), Ile-297 to Glu-391, SEQ ID NO: 4” was tested. Which “incubation time at which internalised protein is detected in cells” value did it give?
**A.** The value was at most 2 h.
